This note sets out measurements from BindingDB's records for doi:10.1021/jm980254j (Georgetown University Medical Center, 1998).

Structures are written as SMILES.

This assay deals with phosphoinositide-specific phospholipase C (Bos taurus). The assay can be described thus: In vitro inhibitory activity against bovine Phosphoinositide specific phospholipase C (PI-PLC).

Take `CCCCCCCCCCCCCCCC(=O)OC[C@H](COP(=O)(O)OC1C(O)C(O)C(O)C(F)C1O)OC(=O)CCCCCCCCCCCCCCC` (stereo partly drawn) [Hexadecanoic acid (R)-2-[(3-fluoro-2,4,5,6-tetrahydroxy-cyclohexyloxy)-hydroxy-phosphoryloxy]-1-hexadecanoyloxymethyl-ethyl ester]: inhibition was half-maximal at 8 µM (IC50).

For orientation: IC50 means the point on the concentration scale where inhibition reaches its midpoint.
